The source made the active and inactive calls.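 The calls were made as follows: active = fitted curve reaches -35% activity change at a concentration below twice the top valid dose tested; inactive = the rest, including effects opposite to the expected direction.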
assay: A673 Ewing sarcoma viability loss – cell-based, CellTiter-Glo luminescence, cherry-pick retest, confirmation (AID 720587); details: A673 Ewing sarcoma viability, CellTiter-Glo ATP luminescence, 72 h; at 26 µM (top of the series)

| Structure (SMILES) | activity change, negative = cytotoxicity |
| --- | --- |
| c1cncc(-c2ccc([C@@H]3[C@H]4CNC[C@@H]3N4CC3CCOCC3)cc2)c1 | 9.2% (inactive) |
| CC1=NC(=O)C(N=Nc2cccc(C(=O)O)c2)N1c1ccccc1 (configuration not stated) | -2.93% (inactive) |
| Nc1ccc(Oc2ccccc2-c2ccccc2)cc1 | -6.58% (inactive) |
| O=C(O)c1ccc(N/N=C/c2c(F)cccc2Cl)cc1 | -4.19% (inactive) |
| COc1cccc(S(=O)(=O)N(C)C[C@H]2OCc3cnnn3CCCC(=O)N([C@@H](C)CO)C[C@H]2C)c1 | 0.226% (inactive) |
| CCOc1ccc(NC(=O)C(=O)N/N=C\c2ccc(CNS(=O)(=O)c3ccccc3)o2)cc1 | -1.27% (inactive) |
| Nc1ccc(-c2cc3ccccc3c(=O)o2)cc1 | -2.08% (inactive) |
| COc1ccc(/C=C2\SC(=S)N(CCCC(=O)Nc3ccc(O)cc3)C2=O)cc1 | -14.2% (inactive) |
| CCOC(=O)C1CCCCN1C(=O)CCc1c(C)nc2cc(-c3ccccc3)nn2c1C (configuration not stated) | -3.12% (inactive) |
| COc1ccc(NC(=O)N(C)[C@H]2C[C@H]3c4[nH]c5ccccc5c4CCN3C(=O)[C@H]2CO)cc1 | 5.76% (inactive) |
| Cc1ccc(/C=C/C(=O)N2CCN(S(=O)(=O)c3c(C)c(C)cc(C)c3C)CC2)o1 | 4.87% (inactive) |
| CC(=O)N1CCCC(c2cc(C(=O)Nc3ccccc3)no2)C1 (configuration not stated) | 9.56% (inactive) |
| O=C(CN1C(=O)c2ccccc2S1(=O)=O)c1ccc(F)cc1 | -6.39% (inactive) |
| C/C=C/c1ccc(C2[C@@H]3CN(C(=O)Cc4ccccc4)C[C@H]2N3)cc1 (some centres not stated) | -1.54% (inactive) |
| O=C(CNC(c1ccccc1)c1ccccc1)Nc1ccccc1-c1ccccc1 | -1.93% (inactive) |
| Cc1ccc(NC(=O)CCN2CCCCC2)cc1 | 12.4% (inactive) |
| O=c1c2ccccc2oc2ccc(C#CC3(O)CCCCC3)cc12 | 1.29% (inactive) |
| COc1ccc(C/C(N)=N/OC(C)=O)cc1OC | 0.039% (inactive) |
| CCOc1ccc(-c2cc(CCCC(=O)N3CCN(c4ccc(OC)cc4)CC3)no2)cc1 | 9.05% (inactive) |

| Structure (SMILES) | activity change, negative = cytotoxicity |
| --- | --- |
| CN(C)c1ccc(N=Nc2ccc(C(=O)O)cc2)cc1 | 1.5% (inactive) |
| CN(C)C(=O)c1ccc(-c2ccccc2[C@@H]2[C@@H](CO)N(C(=O)C3CC3)[C@H]2C#N)cc1 | 0.679% (inactive) |
| CCN(CC)C(=O)CN1C(=O)C(=O)c2ccccc21 | -0.157% (inactive) |
| Cc1nc2cc(-c3ccc(Cl)cc3)nn2c(C)c1CCC(=O)NC(C)c1ccc2c(c1)OCCO2 (configuration not stated) | -6% (inactive) |
| C=CCOC(=O)c1sc(NC(=O)c2ccc(OC)cc2)nc1C | -13% (inactive) |
| Cc1ccc(C(CC(=O)O)Nc2nc(N3CCOCC3)nc(N3CCOCC3)n2)cc1 (configuration not stated) | 16.9% (inactive) |
| C[C@@H]1CN([C@@H](C)CO)S(=O)(=O)c2ccc(C#CCN(C)C)cc2O[C@@H]1CN(C)Cc1ccncc1 | -10.8% (inactive) |
| O=C(O)CN1C(=O)/C(=C\c2ccccc2OCc2ccc(Cl)cc2Cl)SC1=S | -0.632% (inactive) |
| C[C@@H]1CN([C@@H](C)CO)C(=O)Cc2cc(NC(=O)Cn3cnnn3)ccc2O[C@@H]1CN(C)Cc1ccc(Oc2ccccc2)cc1 | 8.72% (inactive) |
| OCCN1CCN(C(=S)c2ccc(-c3ccccc3)cc2)CC1 | 6.18% (inactive) |
| COCCCNc1ccn2nc(-c3ccccc3)cc2n1 | 0.68% (inactive) |
| C[C@@H]1CN([C@H](C)CO)C(=O)c2cc(NS(=O)(=O)c3ccc(Cl)cc3)ccc2O[C@@H]1CN(C)Cc1ccc(Cl)c(Cl)c1 | -17.2% (inactive) |
| COc1ccc(C(=O)NCCNc2nc3cc(C)cc(C)c3cc2C#N)c(OC)c1 | 0.961% (inactive) |
| CC(=O)Nc1ccc(S(=O)(=O)Nc2ccc(N3CCCCC3)cc2)cc1 | -16.3% (inactive) |
| N#C[C@@H]1[C@H](c2ccc(C#Cc3ccccc3F)cc2)[C@@H](CO)N1C(=O)c1cccnc1 | 1.54% (inactive) |
| COc1ccc(/C=C2\SC(=S)N(CCCC(=O)NC3CCCC3)C2=O)cc1OC | -18.4% (inactive) |
| Nc1ncn([C@@H]2O[C@H](CO)[C@@H](O)[C@H]2O)c(=O)n1 | -13.8% (inactive) |
| O=C(O)c1cccc(N/N=C/c2ccc(OC(F)(F)F)cc2)c1 | 10.4% (inactive) |

— PubChem BioAssay AID720587 (Broad Institute, 2013)
